Here are results for ten compounds from patent US20150266836A1, “AROMATIC SULFIDE COMPOUNDS AND METHODS AND USE THEREOF” (The Regents of the University of California, priority 2014, published 2015).

Usually melting point stands for the temperature, or range, at which the solid turns liquid.

System in one data set: not given
Assay: not given
Settings: not given
In turn, `COc1cc(Sc2nnc(-c3ccccc3)o2)cc(OC)c1OC` [Compound 27, 2-Phenyl-5-(3,4,5-trimethoxyphenylthio)-1,3,4-oxadiazole] displayed a melting point of 142 °C.
Same read-out and setting: to `c1ccc(Sc2nnnn2-c2ccccc2)cc1` [Compound 18, 1-Phenyl-5-(phenylthio)-1H-tetrazole] belongs 129 to 133 °C.
Still for that read-out and setting: to `COc1cc(Sc2ncccn2)cc(OC)c1OC` [Compound 24, 2-(3,4,5-Trimethoxyphenylthio)pyrimidine] belongs 103 to 104 °C; to `Fc1c(F)c(F)c(Sc2ccccc2)c(F)c1F` [Compound 11, (Perfluorophenyl)(phenyl)sulfane], 45 to 48 °C.
Take `COc1cc(Sc2nnnn2-c2ccccc2)cc(OC)c1OC` [Compound 26, 1-Phenyl-5-(3,4,5-trimethoxyphenylthio)-1H-tetrazole]: the melting point was 110 to 111 °C.
On the same count and under the same terms, for `COc1cc(Sc2nc3ccccc3o2)cc(OC)c1OC` [Compound 25, 2-(3,4,5-Trimethoxyphenylthio)benzoxazole] the value was 129 to 130 °C; for `N#Cc1cccc(Sc2ncccn2)c1` [Compound 23, 3-(Pyrimidin-2-ylthio)benzonitrile], 71 to 73 °C.

In another data set the test system is MCF-7 breast cancer cell line. The data set is described as follows: Proliferation-based anti-breast-cancer assay (CyQUANT Cell Proliferation Assay) against MCF-7 cells. As to conditions: Homo sapiens, MCF7, dose-response, 10 concentrations serially diluted from 120 μM, DMEM 2% FBS, normalized to DMSO vehicle, read-out: inhibition of MCF-7 cell proliferation, EC50. The method, then:
Biological experiments were performed according to a modified procedure by Sigman et al.
MCF-7 cells were maintained in DMEM/high glucose supplemented with 10% FBS, L-glutamine, and penicillin/streptomycin. Experiments with MCF-7 cells were performed in DMEM/high glucose supplemented with 2% FBS, L-glutamine, and penicillin/streptomycin. MCF-10A cells were maintained in standard medium according to a modified recipe by Brugge et al. DMEM/F12 supplemented with 5% horse serum, 10 μg/mL of human insulin, 0.5 μg/mL of hydrocortisone, 10 ng/mL of EGF, 100 ng/mL of cholera toxin, and penicillin/streptomycin. Experiments with MCF-10A cells were performed in the same medium.
MCF-7 cells were centrifuged in 1×PBS for 20 min, and then the pellet was resuspended in DMEM supplemented with 10% FBS and filtered through a 40 μm nylon cell strainer (Fisher Scientific) to prevent clumping. The cells were seeded at 1500 cells per well in 96-well flat bottom plates suitable for fluorimetry, using 175 μL per well of DMEM supplemented with 10% FBS, and grown for 24 h in 5% CO2 at 37° C. The compounds (including the faslodex positive control) were dissolved in molecular biology grade DMSO to achieve a 3.5 mM stock solution and then sterile filtered through a 0.45 μm PVDF syringe filter unit (Fisher Scientific). The 3.5 mM stock solutions were subsequently diluted to a final concentration of 10 μM in DMEM supplemented with 2% FBS. Additionally, the corresponding DMSO vehicle control was diluted using the same medium.
After 24 h of growth, the cells were treated by replacing the normal media with fresh media containing the individual compounds or vehicle control (day 0). The outer rows of wells were not used to eliminate the possibility of effects due to evaporation of media. The cells were incubated with compound for 48 h and then treated again by aspirating the media and adding fresh media containing the compounds and controls (day 2). This procedure was repeated after an additional 48 h (day 4). After incubating a final 24 h, the 96-well plates were rinsed with 1×PBS, blotted dry, and then frozen at −78° C. overnight (day 5). On day 6, cell proliferation was measured using the fluorescence-based CyQUANT Cell Proliferation Assay Kit (Invitrogen).
Fluorimetry analysis was performed according to a modified procedure by McGowan et al. Cells were stained with 200 μL/well of 1× CyQUANT GR dye in cell lysis buffer for 10 min in the dark at room temperature and quantified by fluorimetry at 535 nm with 485 nm excitation. The fluorescence values were normalized to the DMSO vehicle control. The normalized values were plotted as an average±standard deviation of 6 wells per compound.
MCF-7 cells were centrifuged in 1×PBS for 20 min, and then the pellet was resuspended in DMEM supplemented with 10% FBS and filtered through a 40 μm nylon cell strainer (Fisher Scientific) to prevent clumping. The cells were seeded at 1500 cells per well in 96-well flat bottom plates suitable for fluorimetry, using 175 μL, per well of DMEM supplemented with 10% FBS, and grown for 24 h in 5% CO2 at 37° C. The compounds 19 and 25 were dissolved in molecular biology grade DMSO to achieve a 42 mM stock and then sterile filtered through a 0.45 μm PVDF syringe filter unit (Fisher Scientific). […]
Addition of compounds was performed as specified above for days 0-6. […] The fluorescence values were normalized to the DMSO vehicle controls corresponding to each concentration.
Regarding `COc1cc(Sc2nc3ccccc3o2)cc(OC)c1OC` [Compound 25, 2-(3,4,5-Trimethoxyphenylthio)benzoxazole], the EC50 turned out to be 4.5 µM.
Turning to `c1ccc(Sc2nnc(-c3ccccc3)o2)cc1` [Compound 19, 2-Phenyl-5-(phenylthio)-1,3,4-oxadiazole], the EC50 came out at 7.9 µM.

Still in this data set, the particulars now being: compounds at 10 μM, compared to faslodex (ICI 182,780), FIG. 1.
With `COc1cc(Sc2nnc(-c3ccccc3)o2)cc(OC)c1OC` [Compound 27, 2-Phenyl-5-(3,4,5-trimethoxyphenylthio)-1,3,4-oxadiazole], the “anticancer activity: inhibition of MCF-7 cell proliferation (result in words)” value is reported as “performed poorly”.
The same measure, in the same setting: for `c1ccc(Sc2nc3ccccc3s2)cc1` [Compound 15, 2-Phenylthiobenzothiazole] the value was “inactive”.
For `c1ccc(Sc2nc3ccccc3o2)cc1` [Compound 16, 2-Phenylthiobenzoxazole], the “anticancer activity: inhibition of MCF-7 cell proliferation (result in words)” value was “inactive”.
